Experimental data taken from patent US11358949B2, “Carbamate and urea compounds as multikinase inhibitors” (ANGEX PHARMACEUTICAL, INC., priority 2017, dated 2022).

How the values were obtained:
TYRO3/SKY = target: T1, TYRO3/SKY (Homo sapiens, UniProt Q06418); experiment: HotSpot Kinase Assay, TYRO3/SKY
T1 sequence (Q06418 41-890): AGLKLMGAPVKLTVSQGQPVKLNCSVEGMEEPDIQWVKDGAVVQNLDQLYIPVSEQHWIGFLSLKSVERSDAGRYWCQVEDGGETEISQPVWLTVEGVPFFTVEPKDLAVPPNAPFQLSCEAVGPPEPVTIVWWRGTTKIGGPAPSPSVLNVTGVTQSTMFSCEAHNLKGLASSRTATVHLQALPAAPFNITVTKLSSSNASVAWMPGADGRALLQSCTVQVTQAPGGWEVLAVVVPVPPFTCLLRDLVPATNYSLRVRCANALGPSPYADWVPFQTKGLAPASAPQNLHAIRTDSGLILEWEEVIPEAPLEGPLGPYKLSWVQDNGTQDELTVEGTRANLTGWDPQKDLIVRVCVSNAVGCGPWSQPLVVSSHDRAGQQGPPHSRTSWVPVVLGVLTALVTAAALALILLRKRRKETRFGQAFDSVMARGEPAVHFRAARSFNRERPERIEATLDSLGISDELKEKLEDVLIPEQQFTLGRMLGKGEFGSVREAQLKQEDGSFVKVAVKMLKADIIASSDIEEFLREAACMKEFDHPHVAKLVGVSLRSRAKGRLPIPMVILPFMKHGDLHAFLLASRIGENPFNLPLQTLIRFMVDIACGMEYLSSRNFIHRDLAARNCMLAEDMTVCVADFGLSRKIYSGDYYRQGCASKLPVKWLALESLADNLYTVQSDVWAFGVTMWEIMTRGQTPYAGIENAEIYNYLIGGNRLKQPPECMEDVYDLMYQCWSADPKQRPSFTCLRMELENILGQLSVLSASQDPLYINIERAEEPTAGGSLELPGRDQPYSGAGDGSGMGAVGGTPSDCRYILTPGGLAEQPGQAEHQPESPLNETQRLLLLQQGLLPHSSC
Description: (§1) Specifically, for each reaction, kinase and substrate were mixed in a pH 7.5 buffer containing 20 mM HEPES, 10 mM MgCl2, 1 mM EGTA [Ethylene glycol-bis(2-aminoethylether)-N,N,N′,N′-tetraacetic acid], 0.02% Brij35, 0.02 mg/mL BSA (Bovine Serum Albumin), 0.1 mM Na3VO4, 2 mM DTT, and 1% DMSO. Compounds were then added to each reaction mixture. After a 20-min incubation, ATP (Sigma-Aldrich) and [γ-^33P] ATP (PerkinElmer) were added at a final total concentration of 100 μM. Reactions were carried out at room temperature for 2 hours and spotted onto P81 ion exchange cellulose chromatography paper (Whatman). […] The percent remaining kinase activity relative to a vehicle-containing (DMSO) kinase reaction was calculated for each kinase/inhibitor pair. […] IC50 values were calculated using Prism 5 (GraphPad).

EPHA2 = EPHA2 (Homo sapiens, UniProt P29317); experiment: HotSpot Kinase Assay, EPHA2
c-MER = target: T2, c-MER (Homo sapiens, UniProt Q12866); experiment: HotSpot Kinase Assay, c-MER
T2 sequence (Q12866 21-999): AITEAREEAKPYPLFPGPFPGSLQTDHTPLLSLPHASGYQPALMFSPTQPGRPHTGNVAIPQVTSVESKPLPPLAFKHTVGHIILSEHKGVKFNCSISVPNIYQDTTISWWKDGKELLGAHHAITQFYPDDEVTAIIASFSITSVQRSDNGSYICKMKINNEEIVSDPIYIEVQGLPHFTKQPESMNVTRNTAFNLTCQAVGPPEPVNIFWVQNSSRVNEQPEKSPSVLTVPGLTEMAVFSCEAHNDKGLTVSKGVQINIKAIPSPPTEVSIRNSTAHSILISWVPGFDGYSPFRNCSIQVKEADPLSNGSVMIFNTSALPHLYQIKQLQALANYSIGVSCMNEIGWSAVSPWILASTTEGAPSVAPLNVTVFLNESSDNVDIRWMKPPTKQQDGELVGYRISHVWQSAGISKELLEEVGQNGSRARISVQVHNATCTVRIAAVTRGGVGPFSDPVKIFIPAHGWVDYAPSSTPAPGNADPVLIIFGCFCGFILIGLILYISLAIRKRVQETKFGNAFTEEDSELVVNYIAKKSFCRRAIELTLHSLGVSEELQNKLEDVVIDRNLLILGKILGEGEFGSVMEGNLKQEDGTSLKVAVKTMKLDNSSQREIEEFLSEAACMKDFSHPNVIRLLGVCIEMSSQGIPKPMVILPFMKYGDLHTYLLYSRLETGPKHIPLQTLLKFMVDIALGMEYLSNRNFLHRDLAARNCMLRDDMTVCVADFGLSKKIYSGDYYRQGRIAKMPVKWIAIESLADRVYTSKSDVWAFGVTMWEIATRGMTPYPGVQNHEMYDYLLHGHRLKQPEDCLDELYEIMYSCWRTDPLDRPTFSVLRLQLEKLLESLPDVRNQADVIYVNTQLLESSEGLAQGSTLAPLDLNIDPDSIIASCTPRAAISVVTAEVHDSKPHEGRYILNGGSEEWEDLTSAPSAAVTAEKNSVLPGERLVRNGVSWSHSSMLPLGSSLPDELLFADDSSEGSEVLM

c-Kit = c-Kit (Homo sapiens, UniProt P10721); experiment: HotSpot Kinase Assay, c-Kit
Description: as §1

FMS = FMS (Homo sapiens, UniProt P07333); experiment: HotSpot Kinase Assay, FMS
Description: as §1

AXL = target: T3, AXL (Homo sapiens, UniProt P30530); experiment: HotSpot Kinase Assay, AXL
T3 sequence (P30530 26-894): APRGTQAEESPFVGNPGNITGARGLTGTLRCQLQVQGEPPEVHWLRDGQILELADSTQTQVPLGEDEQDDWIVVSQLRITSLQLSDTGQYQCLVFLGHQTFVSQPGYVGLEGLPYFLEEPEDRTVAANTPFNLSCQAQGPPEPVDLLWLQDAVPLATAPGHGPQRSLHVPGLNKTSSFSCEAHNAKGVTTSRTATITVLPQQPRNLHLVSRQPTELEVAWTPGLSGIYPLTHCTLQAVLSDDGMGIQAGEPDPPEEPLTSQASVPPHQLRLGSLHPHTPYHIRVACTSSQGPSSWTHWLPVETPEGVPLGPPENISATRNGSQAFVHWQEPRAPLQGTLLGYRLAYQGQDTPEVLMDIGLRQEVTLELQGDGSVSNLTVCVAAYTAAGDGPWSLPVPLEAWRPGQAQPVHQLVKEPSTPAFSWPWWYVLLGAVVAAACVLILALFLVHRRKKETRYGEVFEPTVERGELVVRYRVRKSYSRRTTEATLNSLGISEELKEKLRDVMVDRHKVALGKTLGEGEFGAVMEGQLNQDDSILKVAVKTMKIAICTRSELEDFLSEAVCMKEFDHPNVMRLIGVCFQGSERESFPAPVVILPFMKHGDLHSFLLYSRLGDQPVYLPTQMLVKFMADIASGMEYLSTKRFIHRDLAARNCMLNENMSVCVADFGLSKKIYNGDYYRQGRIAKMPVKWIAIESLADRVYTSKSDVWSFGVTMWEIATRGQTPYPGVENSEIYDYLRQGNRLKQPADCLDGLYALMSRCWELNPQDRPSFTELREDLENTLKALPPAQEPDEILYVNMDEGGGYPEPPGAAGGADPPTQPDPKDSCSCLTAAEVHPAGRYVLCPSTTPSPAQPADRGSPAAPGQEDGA
Description: as §1

LOK/STK10 = LOK/STK10 (Homo sapiens, UniProt O94804); experiment: HotSpot Kinase Assay, LOK/STK10
Description: as §1

KDR/VEGFR2 = KDR/VEGFR2 (Homo sapiens, UniProt P35968); experiment: HotSpot Kinase Assay, KDR/VEGFR2
Description: as §1

c-MET = c-MET (Homo sapiens, UniProt P08581); experiment: HotSpot Kinase Assay, c-MET
DDR1 = DDR1 (Homo sapiens, UniProt Q08345); experiment: HotSpot Kinase Assay, DDR1
Description: as §1

KDR/VEGFR2, sequence (P35968 20-1356): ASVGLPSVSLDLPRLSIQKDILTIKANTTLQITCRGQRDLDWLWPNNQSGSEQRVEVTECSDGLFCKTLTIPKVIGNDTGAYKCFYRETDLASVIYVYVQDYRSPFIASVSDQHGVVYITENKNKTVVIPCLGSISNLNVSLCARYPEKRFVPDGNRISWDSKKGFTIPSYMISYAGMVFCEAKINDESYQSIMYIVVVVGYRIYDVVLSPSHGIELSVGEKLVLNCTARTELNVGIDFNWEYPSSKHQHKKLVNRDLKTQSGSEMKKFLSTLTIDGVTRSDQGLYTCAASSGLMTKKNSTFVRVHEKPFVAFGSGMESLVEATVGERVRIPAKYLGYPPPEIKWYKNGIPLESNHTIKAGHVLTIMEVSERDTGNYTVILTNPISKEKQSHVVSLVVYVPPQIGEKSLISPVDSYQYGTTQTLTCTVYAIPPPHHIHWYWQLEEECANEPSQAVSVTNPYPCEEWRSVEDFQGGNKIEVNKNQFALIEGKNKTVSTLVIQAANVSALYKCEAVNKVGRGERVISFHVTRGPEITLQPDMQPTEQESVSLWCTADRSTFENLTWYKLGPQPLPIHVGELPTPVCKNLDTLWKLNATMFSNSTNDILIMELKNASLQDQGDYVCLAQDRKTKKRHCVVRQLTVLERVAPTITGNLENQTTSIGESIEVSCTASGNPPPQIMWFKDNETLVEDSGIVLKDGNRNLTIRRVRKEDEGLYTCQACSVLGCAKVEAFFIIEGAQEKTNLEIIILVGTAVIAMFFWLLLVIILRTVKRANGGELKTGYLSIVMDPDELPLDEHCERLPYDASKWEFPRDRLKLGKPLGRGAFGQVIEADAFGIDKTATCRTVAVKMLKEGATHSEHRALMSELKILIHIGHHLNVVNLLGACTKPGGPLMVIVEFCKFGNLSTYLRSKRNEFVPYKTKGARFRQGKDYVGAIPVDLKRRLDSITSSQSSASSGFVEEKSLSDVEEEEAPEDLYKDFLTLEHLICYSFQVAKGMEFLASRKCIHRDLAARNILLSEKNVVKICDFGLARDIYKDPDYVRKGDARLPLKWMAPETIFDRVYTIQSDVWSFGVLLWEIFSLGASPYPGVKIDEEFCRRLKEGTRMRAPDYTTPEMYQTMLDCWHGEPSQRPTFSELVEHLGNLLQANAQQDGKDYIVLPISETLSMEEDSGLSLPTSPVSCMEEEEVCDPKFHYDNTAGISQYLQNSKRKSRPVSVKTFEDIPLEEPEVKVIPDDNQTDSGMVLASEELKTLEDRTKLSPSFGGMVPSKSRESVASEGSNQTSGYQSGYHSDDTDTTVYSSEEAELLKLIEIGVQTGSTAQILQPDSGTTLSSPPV
c-Kit, sequence (P10721 26-976): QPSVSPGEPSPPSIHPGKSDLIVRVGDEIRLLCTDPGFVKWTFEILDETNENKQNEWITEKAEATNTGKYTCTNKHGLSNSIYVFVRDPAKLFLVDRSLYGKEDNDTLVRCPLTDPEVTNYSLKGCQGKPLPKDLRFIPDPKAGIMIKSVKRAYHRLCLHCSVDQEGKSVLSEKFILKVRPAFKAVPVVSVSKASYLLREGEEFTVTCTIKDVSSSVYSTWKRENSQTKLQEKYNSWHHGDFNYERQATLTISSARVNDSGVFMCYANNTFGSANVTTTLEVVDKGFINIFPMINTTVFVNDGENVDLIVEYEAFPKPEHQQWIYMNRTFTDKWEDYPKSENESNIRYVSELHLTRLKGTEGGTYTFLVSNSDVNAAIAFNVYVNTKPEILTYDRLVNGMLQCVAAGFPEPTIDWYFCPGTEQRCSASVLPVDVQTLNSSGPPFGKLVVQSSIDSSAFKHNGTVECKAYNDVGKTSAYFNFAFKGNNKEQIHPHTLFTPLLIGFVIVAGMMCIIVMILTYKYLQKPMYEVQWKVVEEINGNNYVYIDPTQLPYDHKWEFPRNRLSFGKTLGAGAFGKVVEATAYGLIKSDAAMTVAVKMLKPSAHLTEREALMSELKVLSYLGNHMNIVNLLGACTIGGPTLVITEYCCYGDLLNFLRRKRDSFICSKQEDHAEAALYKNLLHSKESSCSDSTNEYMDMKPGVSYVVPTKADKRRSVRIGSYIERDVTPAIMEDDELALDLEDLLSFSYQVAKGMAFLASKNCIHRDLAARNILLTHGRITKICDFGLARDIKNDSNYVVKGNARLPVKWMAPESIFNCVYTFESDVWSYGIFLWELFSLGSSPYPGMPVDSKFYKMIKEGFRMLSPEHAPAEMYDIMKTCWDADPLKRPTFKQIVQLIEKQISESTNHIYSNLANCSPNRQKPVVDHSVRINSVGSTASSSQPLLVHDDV
c-MET, sequence (P08581 25-1390): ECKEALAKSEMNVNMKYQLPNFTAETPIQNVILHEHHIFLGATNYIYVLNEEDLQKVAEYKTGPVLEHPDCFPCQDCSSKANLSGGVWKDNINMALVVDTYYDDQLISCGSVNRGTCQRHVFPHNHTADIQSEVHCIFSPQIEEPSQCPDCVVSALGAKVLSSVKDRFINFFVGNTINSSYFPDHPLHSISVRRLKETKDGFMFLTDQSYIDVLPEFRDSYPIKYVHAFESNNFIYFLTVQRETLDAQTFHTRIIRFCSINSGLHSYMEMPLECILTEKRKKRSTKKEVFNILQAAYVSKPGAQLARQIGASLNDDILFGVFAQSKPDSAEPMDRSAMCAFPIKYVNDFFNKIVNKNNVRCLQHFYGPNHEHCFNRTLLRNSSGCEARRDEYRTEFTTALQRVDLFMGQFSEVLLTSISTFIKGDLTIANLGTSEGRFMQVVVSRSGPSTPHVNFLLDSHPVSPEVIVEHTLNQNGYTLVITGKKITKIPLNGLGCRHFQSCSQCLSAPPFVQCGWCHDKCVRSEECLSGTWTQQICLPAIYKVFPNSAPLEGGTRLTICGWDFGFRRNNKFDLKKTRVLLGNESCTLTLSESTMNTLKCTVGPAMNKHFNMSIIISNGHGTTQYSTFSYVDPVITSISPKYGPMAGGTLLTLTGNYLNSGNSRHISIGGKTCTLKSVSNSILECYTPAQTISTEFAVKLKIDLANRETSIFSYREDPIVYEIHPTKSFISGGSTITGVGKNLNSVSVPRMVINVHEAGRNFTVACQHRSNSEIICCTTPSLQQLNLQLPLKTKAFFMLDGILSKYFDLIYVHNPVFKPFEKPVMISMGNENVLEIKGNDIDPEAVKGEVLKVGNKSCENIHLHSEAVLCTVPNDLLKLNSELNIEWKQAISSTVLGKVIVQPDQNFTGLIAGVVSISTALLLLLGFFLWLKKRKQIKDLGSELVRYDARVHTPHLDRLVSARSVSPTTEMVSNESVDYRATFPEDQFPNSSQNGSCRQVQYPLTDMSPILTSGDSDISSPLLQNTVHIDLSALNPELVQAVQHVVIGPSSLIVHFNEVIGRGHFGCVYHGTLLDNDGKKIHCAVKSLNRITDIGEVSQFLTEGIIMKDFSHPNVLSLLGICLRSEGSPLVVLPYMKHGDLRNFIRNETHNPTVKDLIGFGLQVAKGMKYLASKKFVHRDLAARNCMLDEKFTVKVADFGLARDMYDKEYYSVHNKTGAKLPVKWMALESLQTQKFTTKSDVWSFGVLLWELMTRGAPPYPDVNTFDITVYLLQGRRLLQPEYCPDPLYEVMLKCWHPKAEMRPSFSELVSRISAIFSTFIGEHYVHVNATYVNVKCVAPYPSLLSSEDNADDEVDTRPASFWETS
FMS, sequence (P07333 20-972): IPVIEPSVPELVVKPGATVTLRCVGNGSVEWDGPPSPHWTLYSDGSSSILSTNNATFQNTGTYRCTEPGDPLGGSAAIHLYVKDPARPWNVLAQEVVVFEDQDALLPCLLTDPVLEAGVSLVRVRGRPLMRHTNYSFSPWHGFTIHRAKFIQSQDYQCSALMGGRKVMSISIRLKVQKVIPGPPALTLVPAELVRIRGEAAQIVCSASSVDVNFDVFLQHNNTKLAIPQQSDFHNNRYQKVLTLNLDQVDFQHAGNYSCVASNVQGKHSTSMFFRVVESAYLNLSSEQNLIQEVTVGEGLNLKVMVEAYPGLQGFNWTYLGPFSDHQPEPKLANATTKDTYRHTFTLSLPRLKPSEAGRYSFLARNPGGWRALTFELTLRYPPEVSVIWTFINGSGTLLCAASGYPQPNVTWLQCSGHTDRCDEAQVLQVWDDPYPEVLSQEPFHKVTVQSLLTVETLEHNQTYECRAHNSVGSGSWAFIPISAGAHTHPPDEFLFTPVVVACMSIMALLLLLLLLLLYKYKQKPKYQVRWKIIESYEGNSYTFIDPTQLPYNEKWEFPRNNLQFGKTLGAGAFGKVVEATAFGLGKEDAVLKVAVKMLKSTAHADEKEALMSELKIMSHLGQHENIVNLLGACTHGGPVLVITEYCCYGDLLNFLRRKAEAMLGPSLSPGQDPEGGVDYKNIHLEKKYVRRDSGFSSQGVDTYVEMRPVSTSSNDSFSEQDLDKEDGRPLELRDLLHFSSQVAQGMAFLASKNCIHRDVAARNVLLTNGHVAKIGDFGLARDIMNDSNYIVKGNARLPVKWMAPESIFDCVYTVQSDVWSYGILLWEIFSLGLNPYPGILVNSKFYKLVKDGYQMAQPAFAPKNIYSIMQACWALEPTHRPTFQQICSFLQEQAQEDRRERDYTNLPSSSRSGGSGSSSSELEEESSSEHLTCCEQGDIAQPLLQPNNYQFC

Structure (SMILES) | IC50 (TYRO3/SKY) | IC50 (EPHA2) | IC50 (c-MER) | IC50 (c-Kit) | IC50 (FMS) | IC50 (AXL) | IC50 (LOK/STK10) | IC50 (KDR/VEGFR2) | IC50 (c-MET) | IC50 (DDR1)
COc1cc2c(Oc3ccc(NC(=O)C4(C(=O)Nc5ccc(F)cc5)CC4)cc3)ccnc2cc1OC(=O)N1CCN(C)[C@H](C)C1 [Compound 2-2] | 100 to 1000 nM | 100 to 1000 nM | < 100 nM | < 100 nM | < 100 nM | < 100 nM | 100 to 1000 nM | 100 to 1000 nM | < 100 nM | < 100 nM
COc1cc2c(Oc3ccc(NC(=O)C4(C(=O)Nc5ccc(F)cc5)CC4)cc3)ccnc2cc1OC(=O)N1CCN(C)[C@@H](C)C1 [Compound 2-3] | 100 to 1000 nM | 100 to 1000 nM | < 100 nM | < 100 nM | < 100 nM | < 100 nM | 100 to 1000 nM | 100 to 1000 nM | < 100 nM | < 100 nM
COc1cc2c(Oc3ccc(NC(=O)C4(C(=O)Nc5ccc(F)cc5)CC4)cc3)ccnc2cc1OC(=O)N1Cc2cn(S(C)(=O)=O)nc2C1 [Compound 1-16] | > 1000 nM | > 1000 nM | 100 to 1000 nM | 100 to 1000 nM | > 1000 nM | 100 to 1000 nM | > 1000 nM | > 1000 nM | < 100 nM | < 100 nM
COc1cc2c(Oc3ccc(NC(=O)C4(C(=O)Nc5ccc(F)cc5)CC4)cc3F)ccnc2cc1OC(=O)N1CCN(C)C[C@@H]1C [Compound 3-6] | 100 to 1000 nM | < 100 nM | < 100 nM | 100 to 1000 nM | 100 to 1000 nM | < 100 nM | 100 to 1000 nM | 100 to 1000 nM | < 100 nM | < 100 nM
COc1cc2c(Oc3ccc(NC(=O)C4(C(=O)Nc5ccc(F)cc5)CC4)cc3)ccnc2cc1OC(=O)N1[C@H](C)CN(C)C[C@@H]1C [Compound 6-3] | 100 to 1000 nM | 100 to 1000 nM | < 100 nM | < 100 nM | 100 to 1000 nM | < 100 nM | 100 to 1000 nM | 100 to 1000 nM | 100 to 1000 nM | < 100 nM
COc1cc2c(Oc3ccc(NC(=O)C4(C(=O)Nc5ccc(F)cc5)CC4)cc3)ncnc2cc1OC(=O)N1CCN(C)C[C@H]1C [Compound 8-6, 4-(4-(1-((4-fluorophenyl)carbamoyl)cyclopropane-1-carboxamido)phenoxy)-6-methoxyquinazolin-7-yl (R)-2,4-methylpiperazine-1-carboxylate] | 100 to 1000 nM | > 1000 nM | 100 to 1000 nM | 100 to 1000 nM | 100 to 1000 nM | 100 to 1000 nM | > 1000 nM | > 1000 nM | 100 to 1000 nM | < 100 nM
COc1cc2nccc(Oc3ccc(NC(=O)C4(C(=O)Nc5ccc(F)cc5)CC4)cc3)c2cc1OC(=O)N1CCNCC1(C)C [Compound 7-6] | < 100 nM | 100 to 1000 nM | < 100 nM | < 100 nM | 100 to 1000 nM | < 100 nM | 100 to 1000 nM | < 100 nM | < 100 nM | < 100 nM
COc1cc2c(Oc3ccc(NC(=O)C4(C(=O)Nc5ccc(F)cc5)CC4)cc3)ccnc2cc1OC(=O)N1C[C@@H]2C[C@H]1CN2C [Compound 2-7] | 100 to 1000 nM | < 100 nM | < 100 nM | < 100 nM | < 100 nM | < 100 nM | 100 to 1000 nM | 100 to 1000 nM | < 100 nM | < 100 nM
COc1cc2nccc(Oc3ccc(NC(=O)C4(C(=O)Nc5ccc(F)cc5)CC4)cc3)c2cc1OC(=O)N1[C@H](C)CNC[C@@H]1C [Compound 7-4] | < 100 nM | 100 to 1000 nM | < 100 nM | < 100 nM | < 100 nM | < 100 nM | 100 to 1000 nM | < 100 nM | < 100 nM | < 100 nM
COc1cc2c(Oc3ccc(NC(=O)C4(C(=O)Nc5ccc(F)cc5)CC4)cc3)ccnc2cc1OC(=O)N1C[C@H]2C[C@@H]1CN2C [Compound 2-6] | 100 to 1000 nM | < 100 nM | < 100 nM | < 100 nM | < 100 nM | < 100 nM | 100 to 1000 nM | 100 to 1000 nM | < 100 nM | < 100 nM
